Tests used:
[1] = Storage stability of FlucmRNA-loaded LNP at −80, 5, 25 and 40° C.; assay type: physicochemical; details: for quality at production (storage stability criteria): criteria: PDI 0.2 or less, encapsulation 80% or more
In short: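 FlucmRNA-loaded LNPs held at −80, 5, 25 or 40° C; at each time point size, PDI and encapsulation measured. Quality deemed maintained while size stays within ±20 nm of preparation day, PDI ≤0.2 and encapsulation ≥80%; value is the period meeting all three.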

spleen = experiment: In vivo Fluc activity of FlucmRNA-loaded LNP by in vivo imaging, spleen; details: Balb/c mice, FlucmRNA-loaded LNP i.v. 0.1 mg mRNA/kg, 6 hours
In short: (§1)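 Female Balb/c mice, 7 weeks old, received LNP i.v. at 0.1 mg mRNA/kg. At 6 h, luciferin was given via tail vein at 1.5 mg per mouse, and liver and spleen luminescence was imaged as Avg Radiance [p/s/cm2/sr] near 560 nm.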

F7 [2] = experiment: In vivo F7 knockdown, plasma F7 enzyme activity (BIOPHEN FVII), Balb/c mice; details: i.v. 0.025 mg siRNA/kg, plasma at 24 hours, relative plasma F7 activity of MC3 LNP as 1
In short: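 Female Balb/c mice, 5 weeks old, received F7 siRNA lipid nanoparticles i.v. at 0.025 mg siRNA/kg; plasma F7 activity measured chromogenically (BIOPHEN FVII) 24 h later. Values are % of untreated mice, also expressed as a ratio to MC3-containing nanoparticles set at 1.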

[3] = siRNA/mRNA encapsulation rate by Ribogreen reagent (section IV); assay type: physicochemical; details: for % siRNA encapsulation: F7siRNA-loaded LNP, 50:10:38.5:1.5, N/P ratio 6; for % mRNA encapsulation: FlucmRNA-loaded LNP, 50:10:38.5:1.5
In short: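 LNPs diluted in TE buffer to 8 μg/mL nucleic acid for surface RNA, or to 1.2 μg/mL with 1% Triton X-100 for total RNA. RiboGreen fluorescence (ex 485/em 528 nm) quantified against a Triton-containing standard curve (0-2.5 μg/mL). Encapsulation % = (total − surface)/total × 100.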

[4] = Average particle size (ζ-Average) and PDI by dynamic light scattering (Zetasizer Nano ZSP); assay type: physicochemical
In short: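 Lipid nanoparticles dispersed in PBS(−) were sized by dynamic light scattering, giving the ζ-Average diameter and polydispersity index (PDI).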

liver = experiment: In vivo Fluc activity of FlucmRNA-loaded LNP by in vivo imaging, liver; details: Balb/c mice, FlucmRNA-loaded LNP i.v. 0.1 mg mRNA/kg, 6 hours
In short: as §1

[5] = Average particle size and PDI by dynamic light scattering (Zetasizer Nano ZS); assay type: physicochemical
Procedure: (§2) The average particle size (number-average value) and PDI in PBS(−) and zeta potential in 10 mM HEPES buffer solution (pH 7.4) of lipid nanoparticles were measured using “Zetasizer Nano ZS ZEN3600”, an analyzer utilizing dynamic light scattering (manufactured by Malvern).

[6] = pKa of lipid nanoparticles by TNS (section II); assay type: physicochemical; details: F7siRNA-loaded LNP; compared with LNP of straight-chain CL4H6 or CL15H6 (FIG. 1)
Procedure: The pKa of lipid nanoparticles was measured using p-toluidino-2-naphthalenesulfonic acid (TNS). First, TNS (final concentration: 0.75 μM) and lipid nanoparticles (final concentration: […]) were mixed in buffer solution adjusted to each pH. The fluorescence intensity of the prepared mixture was measured with a microplate reader. The highest and lowest values among the measured values were taken as 100% and 0% charge rates respectively, and the pH indicating 50% charge rate was calculated as pKa.

F7 [7] = experiment: In vivo F7 knockdown, plasma F7 enzyme activity, ICR mice; details: i.v. 0.003-0.1 mg siRNA/kg, plasma at 24 hours, compared with LNP of CL4H6 or CL15H6 (FIG. 2)
Procedure: Then, each prepared F7siRNA-loaded lipid nanoparticles were administered to ICR mice (4 weeks old, female) and in vivo F7 knockdown activity was examined.
Specifically, each F7siRNA-loaded lipid nanoparticles were intravenously administered to ICR mice at 0.003-0.1 mg siRNA/kg, and plasma F7 enzyme activity at 24 hours later was measured. Relative plasma F7 enzyme activity (%) of mice administered each F7siRNA-loaded lipid nanoparticles was calculated using plasma F7 enzyme activity of untreated mice as 100%. FIG. 2(B) is the results of intravenous administration of each F7siRNA-loaded lipid nanoparticle at 0.1 mg siRNA/kg.

[8] = Nucleic acid encapsulation rate by Ribogreen (section II); assay type: physicochemical; details: for % mRNA encapsulation: NlucmRNA-loaded LNP, 60:10:40:1; for % pDNA encapsulation: pFluc-loaded LNP
Procedure: The encapsulation rates of siRNA, mRNA, and pDNA of lipid nanoparticles were measured using Ribogreen (manufactured by life technologies).

[9] = Zeta potential in 10 mM HEPES buffer (pH 7.4); assay type: physicochemical
Procedure: as §2

[10] = F7siRNA-loaded LNP, 50:10:38.5:1.5, N/P ratio 6
[11] = FlucmRNA-loaded LNP, 50:10:38.5:1.5
[12] = FlucmRNA-loaded LNP, lipid:DSPC:cholesterol:DMG-PEG2K 50:10:38.5:1.5
[13] = NlucmRNA-loaded LNP, 60:10:40:1
[14] = NlucmRNA-loaded LNP, lipid:DSPC:cholesterol:PEG-DMG 60:10:40:1
[15] = pFluc-loaded LNP, 50:10:40:1.5, N/P ratio 6
[16] = pFluc-loaded LNP, 50:10:40:1.5, N/P ratio 9

Row | Structure (SMILES) | quality at production (storage stability criteria) [1] | Fluc Activity in spleen (spleen) | F7 enzyme activity (Ratio using MC3 as 1) (F7 [2]) | % siRNA encapsulation [3] | % mRNA encapsulation [3] | PDI [4, 10] | ζ-Average (nm) [4, 10] | PDI [4, 11] | ζ-Average (nm) [4, 12] | Fluc Activity in liver (liver) | PdI [5, 13] | ζ-Average (nm) [5, 14] | ζ-Average (nm) [5, 15] | ζ-Average (nm) [5, 16] | PdI ([5]; pFluc-loaded LNP, N/P ratio 6) | PdI ([5]; pFluc-loaded LNP, N/P ratio 9) | % mRNA encapsulation [8] | % pDNA encapsulation ([8]; N/P ratio 6) | % pDNA encapsulation ([8]; N/P ratio 9) | ζ-potential (mV) [9, 13] | also measured
1 | CCCCCCCCCCCCCCCC(=O)OCCCCCCC(O)(CCCCCCOC(=O)CCCCCCCCCCCCCCC)CCCCOC(=O)C1CCN(C)CC1 [CL15F 16-0] | Does not meet the criteria for “good” at production | 4.59E+05 Avg Radiance [p/s/cm2/sr] | 1.48 | 101.0% | 100.1% | 0.238 | 109.6 nm | 0.234 | 195.90 nm | 1.97E+05 Avg Radiance [p/s/cm2/sr] |  |  |  |  |  |  |  |  |  |  | 
2 | CCCCCCCCCCCCCCC(C)C(=O)OCCCCCCC(O)(CCCCCCOC(=O)C(C)CCCCCCCCCCCCCC)CCCCOC(=O)C1CCN(C)CC1 (centres unmarked) [CL15F 16-1] |  | 1.27E+06 Avg Radiance [p/s/cm2/sr] | 1.37 | 99.0% | 94.0% | 0.088 | 122.5 nm | 0.182 | 187.70 nm | 2.18E+05 Avg Radiance [p/s/cm2/sr] |  |  |  |  |  |  |  |  |  |  | period for which quality remained good, −80° C. ([1]; maximum storage period 1 week): 0 week; period for which quality remained good, 5° C. ([1]; maximum storage period 5 weeks): 0 weeks; period for which quality remained good, 25° C. ([1]; maximum storage period 5 weeks): 0 weeks; period for which quality remained good, 40° C. (weeks) ([1]; maximum storage period 5 weeks): 0 weeks
3 | CC(CCC(C(=O)OCCCCCCC(O)(CCCCCCOC(=O)C(CCC(C)CC(C)(C)C)C(C)CC(C)(C)C)CCCCOC(=O)C1CCN(C)CC1)C(C)CC(C)(C)C)CC(C)(C)C (centres unmarked) [CL15G6] |  | 2.77E+06 Avg Radiance [p/s/cm2/sr] | 2.69 | 100.7% | 100.24% | 0.021 | 97.73 nm | 0.012 | 102.40 nm | 6.52E+06 Avg Radiance [p/s/cm2/sr] | 0.201 | 71.65 nm | 86.39 nm | 100.9 ± 10.7 nm | 0.03 | 0.12 ± 0.08 | 91.8% | 94.7% | 91.1 ± 2.1% | 0.419 mV | pKa of lipid nanoparticle, compared [6]: lower pKa; in vivo F7 knockdown activity, compared (F7 [7]): equivalent in vivo F7 knockdown activity; ζ-potential (mV) ([9]; pFluc-loaded LNP, N/P ratio 6): −5.84 mV; ζ-potential (mV) ([9]; pFluc-loaded LNP, N/P ratio 9): −1.9 ± 0.6 mV
4 | CCCCCCCC/C=C\CCCCCCCC(=O)OCCCCCCC(O)(CCCCCCOC(=O)CCCCCCC/C=C\CCCCCCCC)CCCCOC(=O)C1CCN(C)CC1 [CL15H6, 7-hydroxy-7-(4-((1-methylpiperidine-4-carbonyl)oxy)butyl)tridecane-1,13-diyl dioleate, reference compound] | Does not meet the criteria for “good” at production | 6.17E+05 Avg Radiance [p/s/cm2/sr] | 1.99 | 100.2% | 83.8% | 0.142 | 123.50 nm | 0.238 | 180.90 nm | 1.17E+05 Avg Radiance [p/s/cm2/sr] | 0.495 | 94.34 nm | 121.7 nm | 149.9 ± 9.8 nm | 0.08 | 0.11 ± 0.01 | 90.5% | 72.4% | 81.9 ± 3^ % | 0.123 mV | ζ-potential (mV) ([9]; pFluc-loaded LNP, N/P ratio 6): 0.367 mV; ζ-potential (mV) ([9]; pFluc-loaded LNP, N/P ratio 9): 0.9 ± 0.9 mV
